Experimental data as given in patent publication US20240376097A1, “BCL-2 Inhibitor” (BeiGene Ltd., priority 2020, published 2024).
Where two headings read alike, the source gives them in different places.

Tests used:
[1] = molecular target: recombinant human Bcl-2 D103Y protein (Homo sapiens (Human), UniProt P10415, D103Y); experiment: Bcl-2-D103Y Biochemical Assay (TR-FRET); type: binding; conditions: for IC50: TR-FRET, FITC labeled Bak peptide; for Ratio of Bcl-2 D103Y/Bcl-2 WT: ratio of IC50
How it was run: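 Recombinant human Bcl-2 D103Y binding to its ligand measured by TR-FRET (ex 337 nm, em 490/520 nm) with increasing compound concentrations. Percent inhibition from the 490/520 nm ratio; IC50 from four-parameter logistic fit.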

[2] = molecular target: Recombinant human Bcl-2 protein (Homo sapiens (Human), UniProt P10415); experiment: Bcl-2 TR-FRET Assay; type: binding
How it was run: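 Compounds were pre-incubated with 0.05 nM recombinant Bcl-2 for 0.5 h at room temperature in potassium phosphate buffer, pH 7.5. FITC-Bak peptide (0.5 nM) and Tb-cryptate antibody were then added for 1 h. Percent inhibition from TR-FRET signals gave IC50 values.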

[3] = system: BCL-2 G101V knock-in cell line H96 (derive from RS4;11); experiment: Bcl 2-G101V Knock-In RS4;11 Cell Proliferation Assay; type: cell-based; conditions: Homo sapiens, RS4;11 Bcl-2 G101V knock-in clone H96, 48 hrs, CellTiter-GLO, read-out: Cellular proliferation assay (IC50, nM) RS4
How it was run: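 H96, a CRISPR-generated RS4;11 clone carrying BCL2-G101V knock-in (WES/RNA-seq validated), seeded 50,000 per well and exposed 48 h at 37 °C to 10-point dilutions topping at 1 or 10 μM. Viability by CellTiter-Glo luminescence; mean IC50.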

[4] = system: RS4;11 (BCL-2 dependent acute lymphoblastic leukemia cell line); experiment: RS4;11 Cell Proliferation Assay; type: cell-based; conditions: Homo sapiens, RS4-11, RS4;11 cells, read-out: Cellular proliferation assay (IC50, nM) RS4
How it was run: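 RS4;11 cells, 50,000 per well in RPMI-1640 with 10% FBS, treated 48 h at 37 °C with a 10-point dilution series topping at 1 μM. Viability read by CellTiter-Glo ATP luminescence; mean IC50 reported.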

[5] = system: recombinant human Bcl-2-G101V protein; experiment: Bcl-2-G101V TR-FRET Assay; type: binding; conditions: ratio of biochemical IC50 Bcl-2 G101V / Bcl-2 WT
How it was run: (§1)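 Displacement of ligand from recombinant human Bcl-2-G101V measured by TR-FRET (ex337 nm, em490/520 nm), inhibition derived from the 490/520 ratio across compound titrations. IC50 from four-parameter logistic fit.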

[6] = molecular target: recombinant human Bcl-2-G101V protein (Homo sapiens (Human), UniProt P10415, G101V); experiment: Bcl-2-G101V TR-FRET Assay; type: binding; conditions: Bcl-2 G101V mutant, TR-FRET; read-out: Biochemical assay (IC50, nM) Bcl-2 G101V
How it was run: as §1

[7] = Bcl-2 wild type, TR-FRET, read-out: Biochemical assay (IC50, nM) Bcl-2 WT
[8] = wild type Bcl-2, unit inferred, read-out: Bcl-2 WT

Row | SMILES | IC50 [1] [nM] | Ratio of Bcl-2 D103Y/Bcl-2 WT [1] | IC50 [2, 7] [nM] | IC50 [2, 8] [nM] | IC50 [3] [nM] | IC50 [4] [nM] | Ratio of Bcl-2 G101V/WT [5] | IC50 [6] [nM]
1 | CC(C)c1ccccc1C1CN(Cc2ccc(N(C)C)cc2)CCN1C1CC2(CCN(c3ccc(C(=O)NS(=O)(=O)c4ccc(NC[C@H]5CC[C@](C)(O)CC5)c([N+](=O)[O-])c4)c(Oc4cnc5[nH]ccc5c4)c3)CC2)C1 (stereo partly drawn) [Example 114, 2-((1H-pyrrolo[2,3-b]pyridin-5-yl)oxy)-4-(2-(4-(4-(dimethylamino)benzyl)-2-(2-isopropylphenyl)piperazin-1-yl)-7-azaspiro[3.5]nonan-7-yl)-N-((4-((((1r,4r)-4-hydroxy-4-methylcyclohexyl)methyl)amino)-3-nitrophenyl)sulfonyl)benzamide] | 0.4 | 3.4 | 0.12 | 0.12 | 3.65 | 0.6 | 6.9 | 0.83
2 | [2H]C([2H])([2H])Oc1ccc(CN2CCN(C3CC4(C3)CN(c3ccc(C(=O)NS(=O)(=O)c5ccc(NC[C@H]6CC[C@](C)(O)CC6)c([N+](=O)[O-])c5)c(Oc5cnc6[nH]cc(F)c6c5)c3)C4)[C@H](c3ccccc3C(C)C)C2)cc1 [Example 218, 2-((3-fluoro-1H-pyrrolo[2,3-b]pyridin-5-yl)oxy)-N-((4-((((1r,4r)-4-hydroxy-4-methylcyclohexyl)methyl)amino)-3-nitrophenyl)sulfonyl)-4-(6-((R)-2-(2-isopropylphenyl)-4-(4-(methoxy-d3)benzyl)piperazin-1-yl)-2-azaspiro[3.3]heptan-2-yl) benzamide] | 0.11 | 1.0 | 0.1 | 0.1 | 0.29 | 0.12 | 2.5 | 0.25
3 | COc1ccc(CN2CCN(C3CC4(CCN(c5ccc(C(=O)NS(=O)(=O)c6ccc(NC[C@H]7CC[C@](C)(O)CC7)c([N+](=O)[O-])c6)c(Oc6cnc7[nH]ccc7c6)c5)CC4)C3)C(c3ccccc3C(C)C)C2)cc1C (stereo partly drawn) [Example 144, 2-((1H-pyrrolo[2,3-b]pyridin-5-yl)oxy)-N-((4-((((1r,4r)-4-hydroxy-4-methylcyclohexyl)methyl)amino)-3-nitrophenyl)sulfonyl)-4-(2-(2-(2-isopropylphenyl)-4-(4-methoxy-3-methylbenzyl)piperazin-1-yl)-7-azaspiro[3.5]nonan-7-yl)benzamide] | 0.47 | 1.8 | 0.26 | 0.26 | 2.8 | 0.463 | 4.1 | 1.1
4 | CC(C)c1ccccc1C1CN(CC23CC(C2)C3)CCN1C1CC2(CCN(c3ccc(C(=O)NS(=O)(=O)c4ccc(NC[C@H]5CC[C@](C)(O)CC5)c([N+](=O)[O-])c4)c(Oc4cnc5[nH]ccc5c4)c3)CC2)C1 (stereo partly drawn) [Example 18, 2-((1H-pyrrolo[2,3-b]pyridin-5-yl)oxy)-4-(2-(4-(bicyclo[1.1.1]pentan-1-ylmethyl)-2-(2-isopropylphenyl)piperazin-1-yl)-7-azaspiro[3.5]nonan-7-yl)-N-((4-((((1r,4r)-4-hydroxy-4-methylcyclohexyl)methyl)amino)-3-nitrophenyl)sulfonyl)benzamide] | 0.43 | 5.4 | 0.079 | 0.079 | 4.9 | 0.61 | 9.0 | 0.71
5 | COc1cc(CN2CCN(C3CC4(CCN(c5ccc(C(=O)NS(=O)(=O)c6ccc(NC[C@H]7CC[C@](C)(O)CC7)c([N+](=O)[O-])c6)c(Oc6cnc7[nH]ccc7c6)c5)CC4)C3)[C@H](c3ccccc3C(C)C)C2)ccc1C [Example 260, 2-((1H-pyrrolo[2,3-b]pyridin-5-yl)oxy)-N-((4-((((1r,4r)-4-hydroxy-4-methylcyclohexyl)methyl)amino)-3-nitrophenyl)sulfonyl)-4-(2-((R)-2-(2-isopropylphenyl)-4-(3-methoxy-4-methylbenzyl)piperazin-1-yl)-7-azaspiro[3.5]nonan-7-yl)benzamide] | 0.27 | 1.1 | 0.34 | 0.24 | 0.33 | 0.13 | 2.2 | 0.75
6 | COc1cc(CN2CCN(C3CC4(C3)CN(c3ccc(C(=O)NS(=O)(=O)c5ccc(NC[C@H]6CC[C@](C)(O)CC6)c([N+](=O)[O-])c5)c(Oc5cnc6[nH]cc(F)c6c5)c3)C4)[C@H](c3ccccc3C(C)C)C2)ccc1F [Example 184, 2-((3-fluoro-1H-pyrrolo[2,3-b]pyridin-5-yl)oxy)-4-(6-((R)-4-(4-fluoro-3-methoxybenzyl)-2-(2-isopropylphenyl)piperazin-1-yl)-2-azaspiro[3.3]heptan-2-yl)-N-((4-((((1r,4r)-4-hydroxy-4-methylcyclohexyl)methyl)amino)-3-nitrophenyl)sulfonyl)benzamide] | 0.19 | 1 | 0.19 | 0.19 | 0.44 | 0.16 | 2.9 | 0.53
7 | CC(C)c1ccccc1C1CN(Cc2ccc(F)cc2F)CCN1C1CC2(CCN(c3ccc(C(=O)NS(=O)(=O)c4ccc(NC[C@H]5CC[C@](C)(O)CC5)c([N+](=O)[O-])c4)c(Oc4cnc5[nH]ccc5c4)c3)CC2)C1 (stereo partly drawn) [Example 50] | 1.2 | 6.6 | 0.18 | 0.18 | 7.9 | 0.8 | 6.7 | 1.2
8 | CC(C)c1ccccc1C1CN(C2CCOCC2)CCN1C1CC2(CCN(c3ccc(C(=O)NS(=O)(=O)c4ccc(NC[C@H]5CC[C@](C)(O)CC5)c([N+](=O)[O-])c4)c(Oc4cnc5[nH]ccc5c4)c3)CC2)C1 (stereo partly drawn) [Example 10, 2-((1H-pyrrolo[2,3-b]pyridin-5-yl)oxy)-N-((4-((((1r,4r)-4-hydroxy-4-methylcyclohexyl)methyl)amino)-3-nitrophenyl)sulfonyl)-4-(2-(2-(2-isopropylphenyl)-4-(tetrahydro-2H-pyran-4-yl)piperazin-1-yl)-7-azaspiro[3.5]nonan-7-yl)benzamide] | 0.12 | 10 | 0.012 | 0.012 | 3.16 | 0.42 | 17.5 | 0.21
9 | COc1cccc(CN2CCN(C3CC4(CCN(c5ccc(C(=O)NS(=O)(=O)c6cc7c(c([N+](=O)[O-])c6)N[C@H](C[C@H]6CC[C@H](O)CC6)CO7)c(Oc6cnc7[nH]ccc7c6)c5)CC4)C3)C(c3ccccc3C(C)C)C2)c1 (stereo partly drawn) [Example 45] | 0.54 | 2.3 | 0.24 | 0.24 | 3.29 | 0.41 | 4.0 | 0.95
10 | COC1C2CC3CCC(CN4CCN(C5CC6(C5)CN(c5ccc(C(=O)NS(=O)(=O)c7ccc(NC[C@H]8CC[C@](C)(O)CC8)c([N+](=O)[O-])c7)c(Oc7cnc8[nH]cc(F)c8c7)c5)C6)[C@H](c5ccccc5C(C)C)C4)(C2)CC31 (stereo partly drawn) [Example 355, 2-((3-fluoro-1H-pyrrolo[2,3-b]pyridin-5-yl)oxy)-N-((4-((((1r,4r)-4-hydroxy-4-methylcyclohexyl)methyl)amino)-3-nitrophenyl)sulfonyl)-4-(6-((2R)-2-(2-isopropylphenyl)-4-((3-methoxyoctahydro-5H-2,5-methanoinden-5-yl)methyl)piperazin-1-yl)-2-azaspiro[3.3]heptan-2-yl)benzamide] | 1.8 | 5.8 | 0.31 | 0.31 | 2.8 | 0.2 | 3.6 | 1.1
11 | CC(C)c1ccccc1[C@@H]1CN(Cc2ccc(OC3CC3)cc2)CCN1C1CC2(C1)CN(c1ccc(C(=O)NS(=O)(=O)c3ccc(NC[C@H]4CC[C@](C)(O)CC4)c([N+](=O)[O-])c3)c(Oc3cnc4[nH]cc(F)c4c3)c1)C2 [Example 365] | 0.51 | 1.1 | 0.46 | – | 0.26 | 0.12 | 2.9 | 1.3
